Measured values taken from article PMC6383986, “Fragment-Based Covalent Ligand Screening Enables Rapid Discovery of Inhibitors for the RBR E3 Ubiquitin Ligase HOIP” (Journal of the American Chemical Society, 2019).

Molecular target: T1, wild type HOIP RBR domain (Homo sapiens, UniProt Q96EP0)
T1 construct: made in house; host or cells: E. coli BL21-GOLD(DE3)
T1 sequence (Q96EP0 697-1072): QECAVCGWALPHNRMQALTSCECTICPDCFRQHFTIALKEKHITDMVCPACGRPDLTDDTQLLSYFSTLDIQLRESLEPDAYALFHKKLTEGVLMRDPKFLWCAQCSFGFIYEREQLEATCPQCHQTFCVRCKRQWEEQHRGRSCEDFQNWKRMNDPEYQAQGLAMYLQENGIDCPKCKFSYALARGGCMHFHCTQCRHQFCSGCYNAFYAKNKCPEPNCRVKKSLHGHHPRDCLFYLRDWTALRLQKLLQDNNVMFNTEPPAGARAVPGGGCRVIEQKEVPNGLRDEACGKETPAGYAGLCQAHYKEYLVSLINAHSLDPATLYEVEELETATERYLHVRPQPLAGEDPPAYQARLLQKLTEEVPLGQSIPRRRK
Assay: Protein LC-MS kinetics of covalent labeling
Assay type: binding
Experimental: negative control and compound solutions data points were acquired after 0.5, 4, and 24 h […]
Protocol as described above, using the HOIP RBR C885S mutant (155 µM stock solution in 50 mM HEPES, 150 mM NaCl, 1 mM DTT, pH 7.5) and 50 mM HEPES, 150 mM NaCl, pH 7.5 buffer.
The stock solution at 4 µM (25 µL per sample, final concentration 2 µM, 87 µg/mL), was mixed with buffer (24.5 µL) and compound (5) (0.5 µL of 2, and 20 mM stock solutions in DMSO, giving a final concentration of 20 and 200 µM respectively, and 1% DMSO). Data points were acquired after 0.5 and 4 h incubation.
The HOIP RBR domain wild type was diluted with 50 mM HEPES, 150 mM NaCl, pH 7.5 buffer to afford a new stock solution at 2.02 µM, which was aliquoted into 10 × 297 µL. Compound (5) stock solutions (3.0 µL each) at 0, 0.2, 0.8, 2, 4, 10, 20 and 40 mM in DMSO were added to give final compound concentrations at 0, 2, 8, 20, 40, 100, 200 and 400 µM respectively. Immediately after addition the samples were vortexed briefly and the time zero aliquots (25 µL) withdrawn, flash frozen in liquid nitrogen and stored at -80 °C. The protein solutions were incubated at 800 rpm (Eppendorf Thermomixer), 23 °C. Additional aliquots (all 25 µL) were similarly withdrawn after […]
thawed individually and analyzed by protein mass spectrometry as described above. The total ion counts (TICs) detected for unlabelled HOIP and labelled HOIP-(5) conjugate within a peak elution range of 10 seconds were used to calculate the ratio of labelled HOIP RBR over total HOIP RBR content for each sample. The averaged data from 3 independent experiments were analyzed according to a two-step model of reversible ligand binding followed by irreversible covalent modification (Supplementary Figure S2A),11 fitted to a single exponential equation (equation 1, Supplementary Figure S2B) using GraFit (v.7). The observed rate constants (kobs) relate to Kd and kinact as depicted in equation 2 (Supplementary Figure S2C), although for compounds with weak affinities (such as fragments) the Kd is typically larger than the highest tested compound concentration (limited by aqueous solubility), and the kobs display a linear relationship to compound concentration, and a slope that equals to kinact/Kd (Figure 3D, Supplementary Figure […]
Protein labelling: The HOIP RBR domain (16 µM) in buffer (50 mM HEPES, 150 mM NaCl, pH 7.5) was incubated with compound (5) (267 µM; 16-fold excess) at ambient temperature at 600 rpm (Heidolph Instruments) for 21 h. The protein was purified on a buffer exchanged spin chromatography column (Micro Bio-spin 6, Bio-Rad Laboratories) according to the vendor’s instructions to afford a stock solution of the HOIP RBR-(5) complex at a concentration of 7.6 µM (0.33 mg/mL) as determined by Nanodrop UV spectrophotometer. […]

## COC(=O)/C=C/CNC(=O)c1cc2c([nH]c1=O)CCC2 [Compound 5]
Gradient of kobs vs concentration, 0-400 μM, 2 μM protein
  kinact/Kd: 0.97 ± 0.01 M^–1 s^–1
Inferred from lower limit of Kd
  ligand efficiency, LE: < 0.24
Lower limit, following from Kd limit
  kinact: > 0.0004 s⁻¹
Lower limit, kobs linear across range tested
  Kd: > 400 µM
